Active and inactive are the calls of the source. The calls are words filed in the database; no cut-off is given here.
Key:
[1] = Antiproliferative activity against H1299 cells; type: functional, cell-based; conditions: Homo sapiens, NCI-H1299
[2] = Antiproliferative activity against H661 cells; type: functional, cell-based; conditions: Homo sapiens, NCI-H661
[3] = test system: HCT-116; assay: Antiproliferative activity against HCT116 cells; type: functional, cell-based; conditions: Homo sapiens
[4] = target: Histone H4 (Homo sapiens) (UniProt P62805); assay: Acetylation of histone H4 at 5 uM by Western blot analysis
[5] = target: Histone H4 (Homo sapiens) (UniProt P62805); assay: Acetylation of histone H4 at 2.5 uM by Western blot analysis
[6] = target: Histone H4 (Homo sapiens) (UniProt P62805); assay: Acetylation of histone H4 at 0.3 uM by Western blot analysis

SMILES	IC50 [2] [µM]	other results
CC(/C=C/C(=O)NO)=C\[C@@H](C)C(=O)c1ccc(N(C)C)cc1 [TRICHOSTATIN]	< 0.3	IC50 [1]: 0.1 µM; IC50 [3]: 0.0013 µM
CC(/C=C/C(=O)NO)=C\C1(C)CCc2ccccc2C1=O (centres undefined)	3	Activity [4]: Active
CC(/C=C/C(=O)NO)=C\C1(C)Cc2ccccc2C1=O (centres undefined)	1.65	
CC(/C=C/C(=O)Nc1ccccc1N)=C\C1(C)Cc2cc(N(C)C)ccc2C1=O (centres undefined)	2.5	
CC(/C=C/C(=O)NO)=C\C1(C)Cc2cc(F)ccc2C1=O (centres undefined)	1.5	Activity [5]: Active
CC(/C=C/C(=O)NO)=C\C1(C)Cc2cc(N(C)C)ccc2C1=O (centres undefined)		Activity [6]: Active
CC(/C=C/C(=O)Nc1ccccc1N)=C\C1(C)CCc2ccccc2C1=O (centres undefined)	5	
CC(/C=C/C(=O)Nc1ccccc1N)=C\C1(C)Cc2cc(F)ccc2C1=O (centres undefined)	7	
CC(/C=C/C(=O)Nc1ccccc1N)=C\C1(C)Cc2ccccc2C1=O (centres undefined)	3	
C=C(/C=C/C(=O)Nc1ccccc1N)CC1(C)Cc2ccccc2C1=O (centres undefined)	> 10	
